For the test, the system named is SR lymphoma cells viability, CellTiter-Glo ATP, 8-48 h. The test is described as follows: cytotoxicity in SR immunoblastic lymphoma cells – cell-based, CellTiter-Glo ATP luminescence, 8-48 h, dry powder, mechanism study for HRAS target identification, late-stage follow-up (AID 720608). Background: Cellular ATP, detected with luciferase, serves as a proxy for viable cell number.

Records with an inconclusive call do not appear.

Usually AC50 stands for the midpoint of the concentration-response curve, whichever way the signal moves. A higher AC50 goes with weaker potency.

As for `COC(=O)c1ccc([C@@H]2c3[nH]c4ccccc4c3C[C@@H](C(=O)OC)N2C(=O)CCl)cc1`, the AC50 was determined as 112 nM (measured here: 8 h treatment), 17.1 nM (measured here: 24 h treatment) and 18.6 nM (measured here: 48 h treatment).

Regarding `CC(C)(C)OC(=O)NCCOCCOCCOc1ccc(N(C(=O)CCl)C(C(=O)NCCc2ccccc2)c2cccs2)cc1Cl` (stereo not given), the AC50 was found to be 265 nM (measured here: 8 h treatment), 61.1 nM (measured here: 24 h treatment) and 53.1 nM (measured here: 48 h treatment).

`COc1ccc(N(C(=O)CCl)C(C(=O)NCCc2ccccc2)c2cccs2)cc1Cl` (stereo not given) returned a half-maximal activity concentration (AC50) (measured here: 8 h treatment) of 119 nM, an AC50 (measured here: 24 h treatment) of 46.8 nM and a concentration at half-maximal activity (AC50) (measured here: 48 h treatment) of 42.3 nM.

For the compound `Cc1onc(C(=O)N2CCN(C(c3ccc(Cl)cc3)c3ccc(Cl)cc3)CC2)c1[N+](=O)[O-]`, the half-maximal activity concentration (AC50) runs as follows: (measured here: 8 h treatment) 364 nM; (measured here: 24 h treatment) 80.4 nM; (measured here: 48 h treatment) 97.9 nM.

For the compound `C#CCCCC(=O)NCCOCCOCCOc1ccc(N(C(=O)CCl)C(C(=O)NCCc2ccccc2)c2cccs2)cc1Cl` (stereo not given), the AC50 runs as follows: (measured here: 8 h treatment) 2430 nM; (measured here: 24 h treatment) 406 nM; (measured here: 48 h treatment) 703 nM.
